Measured values as given in US20190374647A1, “STABLE LIPOSOMES FOR DRUG DELIVERY” (YISSUM RESEARCH DEVELOPMENT COMPANY OF THE HEBREW …, priority 2012, published 2019).

What was measured:
[1] = cited from earlier work
[2] = Doxorubicin remote loading encapsulation efficiency and short stability; type: physicochemical; conditions: for Encapsulation % (T0): doxorubicin
Experimental: In this stage the efficiency of remote loading encapsulation and encapsulation stability were studied. Liposomes were prepared as described above. […] All formulations were made from HSPC:Cholesterol:PEG-DSPE mole ratio of 54.5:41:4.5, briefly the lipids were hydrated and suspended in the various ammonium ions to form MLV. The MLV were downsized by extrusion followed by dialysis to remove external ammonium salt and form the gradient, finally drug was remote loaded into the gradient liposomes.

[3] = Doxorubicin accelerated chemical stability in ammonium-anion salt solutions; type: physicochemical; conditions: 4 hours at 70° C.; for Additional peaks: HPLC
Experimental: For accelerated stability the, chemical stability of doxorubicin in various ammonium-anions salts solutions was tested. Briefly, doxorubicin (2 mg/ml) was dissolved in various ammonium-anions salt solutions and incubated for 4 hours at the temperature of 70° C. At the end of 4 hours incubation doxorubicin concentration and the presence of doxorubicin degradation products were analyzed by HPLC using Agilent 1100 according to following protocol: Mobile phase: 50% MeOH, 40% phosphate buffer, pH=4, 10% Acetonitrile and 2% TEA Column: Phenomenex, Luna, C-18, Flow: 1 ml/min, detection wavelength 254 and 480 nm.

[4] = Topotecan remote loading encapsulation efficiency; type: physicochemical; conditions: 4 days storage at 5° C.
Experimental: Remote loading of topotecan were performed in the same way as the experiments described in Table 4 and Table 5 below for doxorubicin remote loading except that the drug concentration was determined from its absorbance at a wave length of 370 nm (which is the wavelength of maximum absorbance of topotecan).

[5] = counter anion 500 mM, salt pH 5.5
[6] = counter anion 500 mM, salt pH 6.2
[7] = counter anion 250 mM, salt pH 5.5
[8] = counter anion 500 mM, salt pH 5.53

O=C(O)[C@H]1OC(O)[C@H](O)[C@@H](O)[C@@H]1O (mixture of isomers) [Glucuronate]
Log P (log D at pH=5.5) value quoted in text [1]: < −2.3
LogD (acid)- at pH = 5.5 [1]: −5.38

O=S(=O)(O)CCCO [3-HydroxyPropane-1-Sulfonate]
LogP (acid) [1]: −2.59
LogD (acid)- at pH = 5.5 [1]: −5.39

O=C(O)[C@H](O)[C@@H](O)[C@H](O)[C@H](O)CO [Gluconate]
LogP (acid) [1]: −2.116
LogD (acid)- at pH = 5.5 [1]: −4.83

O=C(O)CO [Glycolate]
LogP (acid) [1]: −1.204
Encapsulation % (T0) [2, 5]: 41.19%

CC(=O)C(=O)O [Pyruvate]
LogP (acid) [1]: −1.24
LogD (acid)- at pH = 5.5 [1]: −4.04
Encapsulation % Short stability 5° C. After one week ([2]; counter anion 500 mM, salt pH 6): 15.38%

O=S(=O)(O)O [Sulfate]
Assay loss (%) at 254 nm [3]: <15%
Additional peaks [3]: no

CC[C@@]1(O)C(=O)OCc2c1cc1n(c2=O)Cc2cc3c(CN(C)C)c(O)ccc3nc2-1 [topotecan]
encapsulation efficiency (loading) ([4]; topotecan HCl 1.3 mg/ml, ammonium 350 mM, methanesulfonate 350 mM counter anion): 94%
encapsulation efficiency (loading) ([4]; topotecan HCl, 500 mM ammonium, 250 mM sulfate counter anion): 93%

Ethanesulfonate
LogP (acid) [1]: −1.577
LogD (acid)- at pH = 5.5 [1]: −4.85

Lactate
Encapsulation % Short stability 5° C. After one week [2, 6]: 48.68%
Encapsulation % (T0) ([2]; counter anion 250 mM, salt pH 4.5): 18.37%
Encapsulation % (T0) [2, 7]: 23.42%
Encapsulation % (T0) [2, 6]: 101.95%

Maleate
Encapsulation % (T0) [2, 7]: 36.23%
Encapsulation % (T0) [2, 5]: 22.55%

Methanesulfonate
Assay loss (%) at 254 nm [3]: <15%
Additional peaks [3]: no
LogP (acid) [1]: −2.087
LogD (acid)- at pH = 5.5 [1]: −5.39
Encapsulation % Short stability 5° C. After one week [2, 8]: 110.66%
Encapsulation % (T0) [2, 8]: 106.32%

Tartarate
LogP (acid) [1]: −1.081
